The source of these data is EPA's ToxValDB 9.5 (doi:10.2903/j.efsa.2013.3131).

One series has as its system Rattus norvegicus. Conditions: for LD50: acute, oral, mortality.
For another series, the system named is Oryctolagus sp. Particulars: reproduction developmental; body weight.
The next series relates to Landoltia sp. Particulars: chronic/long-term; duration: 7 days; biomass.
A further series concerns Bibionidae. Conditions: chronic/long-term; other.
In another series the test system is Daphnia magna. Conditions: chronic/long-term; duration: 21 days; reproduction.
In the next series the test system is Pimephales promelas. Particulars: chronic/long-term; duration: 34 days; other.
The test system of the next series is Oncorhynchus mykiss. Conditions: acute; duration: 96 hours; mortality.
The next series concerns Neomysis kadiakensis. Conditions: acute; duration: 96 hours; mortality.
Another series deals with Apis mellifera. Conditions: acute, mortality.
The test system of a further series is Pleurozium sp. Conditions: acute; duration: 96 hours; biomass.

Each structure is given as a SMILES string.

Take `CS(=O)(=O)c1ccc(C(=O)C2C(=O)C(O)CC(O)C2=O)c(Cl)c1COCC(F)(F)F` (configuration not stated): in the series with Rattus norvegicus, the LD50 was greater than 2000 mg/kg-day. Also, the NOAEL – broadly, the highest tested level that showed no adverse finding – was determined as 12.7 mg/kg-day with Rattus norvegicus (subchronic, duration: 90 days) and 1 mg/kg-day with Oryctolagus sp..
Consider `CS(=O)(=O)c1ccc(C(=O)C2C(=O)CCCC2=O)c(Cl)c1COCC(F)(F)F` [Tembotrione], for which the LC50 with Tagia sp. (acute, duration: 14 days, mortality) was 1000 mg/kg; in the series with Colinus virginianus (acute, oral, diet, mortality), greater than 1790 mg/kg-day. In addition, the NOEC with Tagia sp. (chronic/long-term, duration: 28 days, reproduction) amounted to 1.25 mg/kg; in the series with Landoltia sp., 0.0032 mg/L; in the series with Bibionidae it was 2 mg/L; with Daphnia magna, 5 mg/L; in the series on Pimephales promelas, 0.604 mg/L; in the series on Oncorhynchus mykiss, 100 mg/L. The figures for the NOEC in the series on Colinus virginianus (reproduction developmental), with Neomysis kadiakensis and with Pleurozium sp. were 22.2 mg/kg-day, 0.046 mg/L and 0.2 mg/L, respectively. Further, the LD50 is greater than 2000 mg/kg-day in the series with Rattus norvegicus; greater than 2250 mg/kg-day in the series with Colinus virginianus (acute, oral, mortality); greater than 100 µg/piece in the series on Apis mellifera (dermal); greater than 92.8 µg/piece in the series on Apis mellifera (oral, unspecified). Also, the NOAEL with Rattus norvegicus (chronic, clinical signs) was found to be 0.8 mg/kg-day; in the series with Rattus norvegicus (chronic, duration: 2 years, F, ophthalmoscopic examination), 0.04 mg/kg-day; in the series with Rattus norvegicus (subchronic, duration: 90 days, ophthalmoscopic examination), 0.07 mg/kg-day; in the series on Oryctolagus sp., 1 mg/kg-day.
